Here are results for one compound from patent US12721823B2, “Methods and compositions for treatment of low circulating testosterone conditions” (University of Florida Research Foundation, Inc., priority 2021, dated 2026).

What all share (assay type): in vivo, rat
For series [1], the system named is Kcc2 gene promoter. In words: Bisulfite sequencing of CpG sites in the Kcc2 gene promoter. The conditions noted are these: for DNA methylation in the Kcc2 gene promoter: vs con-M*con-F; for methylation of CpG sites in the Kcc2 gene promoter: vs control. On the procedure: Genomic DNA was extracted from the sperm pellet and ovaries of adult G1 rats and from hippocampal and hypothalamic tissues of G2 rats using the DNeasy Blood and Tissue kit (Qiagen, Hilden, Germany). The sodium bisulfite conversion was performed with EZ DNA Methylation kits (Zymo Research, Irvine, CA) following the manufacturer's instructions. The primers (Kcc2: forward: […] (SEQ ID NO: 1); reverse: […] (SEQ ID NO: 2) were designed for the bisulfite-converted DNA sequences, using previously published sequences. 5 PCR amplification was performed with HotStar Taq (Qiagen, Hilden, Germany). Amplicons were cloned into pCR4-TOPO vector with the TOPO TA cloning kit for sequencing (Life Technologies, Carlsbad, CA). Miniprep was performed on each positive clone using ZR Plasmid Miniprep kit (Zymo Research, Irvine, CA). Sanger sequencing was done by Genewiz (South Plainfield, NJ, USA) using M13R primers. The DNA methylation status of all CpG sites was analyzed using Benchling Molecular Biology 2.0 Software (Benchling, San Francisco, CA). The bisulfite sequencing analysis of the Kcc2 DNA was performed only in G2 male progeny of con-M*con-F and sevo-M*sevo-F matings.

For series [2], the system named is Sprague-Dawley rats. The experiment in a line: Serum FSH, LH, testosterone (Tn), estradiol (E2) by ELISA and testis weight. The source says: Sixty-four G1 rats (32 control and 32 sevoflurane exposed) and 122 G2 rats, which were not exposed to sevoflurane anesthesia and were subjected to animal facility rearing only, were studied. The G1 rats were sequentially evaluated in the EPM starting on ~P125, PPI of the acoustic startle response on ~P135 and MWM starting ~on P145 (FIG. 1). One half of these animals were sacrificed on ≥P160 to collect trunk blood, brain and testis and ovarian tissues for further analyses. The rest of these animals were physically restrained for 30 min on ≥P160 to measure corticosterone responses, followed by collection of tissue samples (as above) for further analyses. The G2 rats were evaluated in the EPM starting on P60 and PPI of startle on P70 (FIG. 1). One half of these animals were sacrificed on ≥P95 to collect trunk blood and brain tissue samples for further analyses, and the rest of these animals were tested for the corticosterone responses to physical restraint for 30 min on ≥P95 before collecting the trunk blood and brain tissue samples. After decapitation, the trunk blood samples were collected and centrifuged at 4° C., 1000 g for 15 min, and then kept at -80° C. for hormone assays. The brain was removed from the skull onto ice pads. The hypothalamus was isolated by making an anterior cut at the level of the optic chiasm, a posterior coronal section anterior to the mammillary bodies, two sagittal cuts parallel to the lateral ventricles and a dorsal horizontal cut at the level of the anterior commissure, as described elsewhere.^19 The hippocampus was isolated from the respective blocks. All tissue samples were placed in vials filled with RNAlater solution (Invitrogen, Carlsbad, CA) and then stored at -80° C. Testis tissue was removed and washed with 0.9% saline before weighing. Sperm were isolated from the caudal epididymis of adult males into PBS with 1% BSA at 37° C. using a swim-up assay. After settling for 30 min, sperm-containing supernatant was centrifuged for 5 min at 4000 rpm. Sperm pellets were stored at -80° C. After separation from the adipose tissues, ovaries were stored at -80° C. Hormone analyses in serum samples isolated from G1 and G2 rats were performed using commercially available kits according to the manufacturer's instructions. Serum concentrations of FSH (CSB-E06869r) and LH (CSB-E12654r) were quantified using ELISA kits (CUSABIO TECHNOLOGY LLC, Houston, TX, USA). Serum Tn and E2 concentrations were measured using ELISA kits (582701, Cayman Chemical Company, Ann Arbor, MI, USA and E[…]-100, Calbiotech, Spring Valley, CA, USA, respectively).

The subject of series [3] is Sprague-Dawley rats. The experiment in a line: Morris water maze (MWM) test. The source says:
Sixty-four G1 rats (32 control and 32 sevoflurane exposed) and 122 G2 rats, which were not exposed to sevoflurane anesthesia and were subjected to animal facility rearing only, were studied. The G1 rats were sequentially evaluated in the EPM starting on ~P125, PPI of the acoustic startle response on ~P135 and MWM starting ~on P145 (FIG. 1). One half of these animals were sacrificed on ≥P160 to collect trunk blood, brain and testis and ovarian tissues for further analyses. The rest of these animals were physically restrained for 30 min on ≥P160 to measure corticosterone responses, followed by collection of tissue samples (as above) for further analyses. The G2 rats were evaluated in the EPM starting on P60 and PPI of startle on P70 (FIG. 1). One half of these animals were sacrificed on ≥P95 to collect trunk blood and brain tissue samples for further analyses, and the rest of these animals were tested for the corticosterone responses to physical restraint for 30 min on ≥P95 before collecting the trunk blood and brain tissue samples.
The MWM tests were run using a MWM apparatus and data were analyzed using a computer-based video tracking system (Water 2020; HVS Image) as previously described. 5

The mark [4] stands for this setting: G2 males, parental exposure to sevoflurane.

With `FCOC(C(F)(F)F)C(F)(F)F` [sevoflurane, 1,1,1,3,3,3-hexafluoro-2-(fluoromethoxy)propane], the “DNA methylation in the Kcc2 gene promoter” value is “increased DNA methylation” in series [1] (hippocampus of G2 male progeny of both exposed parents, CpG site 1); “increased DNA methylation” in series [1] (hippocampus of G2 male progeny of both exposed parents, CpG site 2); “increased DNA methylation” in series [1] (hippocampus of G2 male progeny of both exposed parents, CpG site 3); “increased DNA methylation” in series [1] (hypothalamus of G2 male progeny of both exposed parents, CpG site 1); “increased DNA methylation” in series [1] (hypothalamus of G2 male progeny of both exposed parents, CpG site 2); “increased DNA methylation” in series [1] (hypothalamus of G2 male progeny of both exposed parents, CpG site 3). The “methylation of CpG sites in the Kcc2 gene promoter” value in series [1] (ovarian tissue of G1 female rats, CpG site 1) is on record as “increased methylation”; in series [1] (ovarian tissue of G1 female rats, CpG site 2), “increased methylation”; in series [1] (sperm of G1 male rats, CpG site 1), “increased methylation”; in series [1] (sperm of G1 male rats, CpG site 2), “increased methylation”. Moreover, the “serum levels of E2 (estradiol)” value in series [2] (G1 female rats, vs control) is on record as “not different”. Besides, the “serum levels of FSH” value in series [2] (G1 female rats, vs control) is given as “no significant treatment effects”; in series [2] (G1 male rats, vs control), “not different”. Besides, the “serum levels of LH” value is reported as “no significant treatment effects” in series [2] (G1 female rats, vs control) and “increased” in series [2] (G1 male rats, vs control). The “serum levels of Tn (testosterone)” value in series [2] (G1 female rats, vs control) is “not different”; in series [2] (G1 male rats, more than 3 months after sevoflurane exposure, vs control), “significantly increased”. In addition, the testis weight result was “significantly reduced” in series [2] (G1 male rats, vs control) and “no significant treatment effects” in series [2] (setting [4]). Also, the “serum levels of Tn” value in series [2] (setting [4]) is on record as “no significant treatment effects”. Also, in series [3] (G1 female rats), the MWM tests entry was “no significant group effects”. For the same compound, the MWM escape latencies result in series [3] (G1 male rats, 5-day training period) was “no significant between-subjects effect”. Also, the “crossings over the escape platform location, MWM” value in series [3] (G1 male rats, probe test) is given as “fewer crossings”. The “time in the target quadrant of the MWM” value in series [3] (G1 male rats, probe test) is listed as “significantly less time”.
